Measurements: US9650339B2, “Inhibitors of histone demethylases” (Gilead Sciences, Inc., priority 2013, dated 2017)

Molecular target: T1, KDM4A (Homo sapiens, UniProt O75164)
T1 construct: Full length; host or cells: U2OS
T1 sequence (O75164 1-1064): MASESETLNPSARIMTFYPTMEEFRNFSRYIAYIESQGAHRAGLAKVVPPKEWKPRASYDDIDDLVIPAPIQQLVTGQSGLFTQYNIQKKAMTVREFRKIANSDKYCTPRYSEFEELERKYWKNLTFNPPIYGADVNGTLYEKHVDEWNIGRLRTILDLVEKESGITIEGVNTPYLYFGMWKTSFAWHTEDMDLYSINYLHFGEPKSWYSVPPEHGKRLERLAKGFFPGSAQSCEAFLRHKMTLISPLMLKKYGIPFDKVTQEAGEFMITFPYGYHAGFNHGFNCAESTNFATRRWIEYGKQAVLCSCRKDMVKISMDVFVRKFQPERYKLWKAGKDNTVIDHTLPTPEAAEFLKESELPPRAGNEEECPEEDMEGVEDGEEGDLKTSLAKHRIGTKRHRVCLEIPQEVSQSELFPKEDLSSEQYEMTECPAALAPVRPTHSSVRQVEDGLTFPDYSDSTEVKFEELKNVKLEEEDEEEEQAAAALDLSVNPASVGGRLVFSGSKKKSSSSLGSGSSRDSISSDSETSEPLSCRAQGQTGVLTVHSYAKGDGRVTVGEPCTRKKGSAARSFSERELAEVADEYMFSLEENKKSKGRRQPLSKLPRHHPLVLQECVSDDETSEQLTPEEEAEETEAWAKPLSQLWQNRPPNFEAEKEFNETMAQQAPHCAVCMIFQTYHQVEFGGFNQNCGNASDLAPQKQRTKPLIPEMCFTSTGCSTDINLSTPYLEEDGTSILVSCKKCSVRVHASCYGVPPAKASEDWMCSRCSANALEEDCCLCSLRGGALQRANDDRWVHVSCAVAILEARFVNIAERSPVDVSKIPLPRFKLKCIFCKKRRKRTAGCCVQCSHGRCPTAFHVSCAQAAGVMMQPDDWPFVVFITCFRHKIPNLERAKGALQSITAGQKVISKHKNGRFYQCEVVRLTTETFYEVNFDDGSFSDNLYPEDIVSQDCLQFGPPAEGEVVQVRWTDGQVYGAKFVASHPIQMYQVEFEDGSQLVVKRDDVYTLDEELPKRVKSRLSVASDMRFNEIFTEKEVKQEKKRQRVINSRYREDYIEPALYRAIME
Assay: Histone lysine demethylase immunofluorescence assay, U2OS cells transfected with KDM4A
Type: cell-based
Conditions: U2OS cells transfected with pCMVHA KDM4A; mark detected H3K9me3; 20 hours
Procedure: U2OS cells were seeded 24 hours before transfection. Transfection was performed with Fugene HD transfection reagent as recommended by the manufacturer. 6 hours after transfection, the cells were harvested and seeded into multi well plates into media containing compound. The media used was DMEM containing 10% FBS and pen/strep. 20 hours after incubation of cells with compounds, the cells were washed in PBS, harvested by fixation with formaldehyde 4% aqueous solution, and washed in PBS. Subsequently, the cells were permeabilized in PBS with 0.2% Triton X-100 for. Blocking was performed in PBS with 0.2% Triton X-100 and 5% FBS. The cells were incubated with primary antibodies in blocking solution over night at 4° C. The primary antibodies used in the assays were HA.11 (Covance, MMS-101P) and the antibody detecting the mark specified in the table below. After incubation with primary antibodies, the cells were washed with PBS, incubated with secondary antibodies (Alexa fluor 594 goat anti rabbit IgG, Invitrogen, A11012; Alexa flour 488 donkey anti mouse IgG, Invitrogen, A21202) and Hoechst, (Sigma, 33342) in blocking solution, and washed again with PBS. Finally, PBS was added and high throughput imaging and analysis were performed by an IN Cell Analyzer 1000 (GE Healthcare). The robot software analyzed individual cells and divided these into HA+ (transfected cells) and HA− (non-transfected cells). The IC50 values were based on an average measure of the staining of the mark specified in the table below in the transfected cells.

IC50 [nM]	SMILES
> 2500	COc1ccccc1CN1CCC(NC(=O)CNCc2cc(CNC3CC3)ccn2)CC1 [Compound 20, 2-[({4-[(cyclopropylamino)-methyl]pyridin-2-yl}methyl)amino]-N-{1-[(2-methoxyphenyl)methyl]-piperidin-4-yl}acetamide]
> 2500	O=Cc1ccnc(CNCCCCN(Cc2ccccc2)C2CC2)c1 [Compound 109, 2-[({4-[benzyl-(cyclopropyl)amino]-butyl}amino)methyl]-pyridine-4-carbaldehyde]
